Assay results published in publication PMC10672332, “Lecanicilliums A–F, Thiodiketopiperazine-Class Alkaloids from a Mangrove Sediment-Derived Fungus Lecanicillium kalimantanense” (Marine Drugs, 2023).
In brackets after ≈: the same amount, converted by molar mass. Read-outs that look alike come from different tables or passages of the source.

Assays:
brine shrimps = assay: Brine shrimp lethality bioassay; type: in vivo; conditions: Table 3
Source text: The methods were the same as those used in our previous studies.

[1] = Cytotoxicity, CCK-8 method; type: cell-based; conditions: human
Procedure: (§1) Cytotoxic activity was evaluated using the human lung adenocarcinoma cell line H1975 and human hepatocellular carcinoma cell line HepG-2, using the CCK-8 method as described in our previous study. Briefly, each of the test compounds was dissolved in DMSO and further diluted to give final concentrations of 80, 40, 20, 10, 5, 2.5, and 1.25 μM, respectively. H1975 cells or HepG-2 cells (5 × 10^3 […]) were seeded in 96-well plates and treated with compounds at the indicated concentration for 24 hours and then 10 μL CCK-8 reagent was added to each well. The plates were incubated at 37 °C for another 4 hours. Finally, the optical density was measured at a wavelength of 450 nm with a Bio-Rad microplate reader. Dose–response curves were generated, and the IC50 values were calculated from the linear portion of log dose–response curves.

[2] = Cytotoxicity, CCK-8 method; type: cell-based; conditions: human; remark: listed apart in the source
Procedure: as §1

S. iniae = assay: Antibacterial assay, micro broth dilution; type: cell-based; conditions: Streptococcus iniae, read-out: Antibacterial Activity (MIC) S. iniae
Procedure: (§2) The micro broth dilution method was used to evaluate the antibacterial activities of compounds 1–19 against the growth of eight common pathogens: Bacillus subtilis BS01, Micrococcus luteus, Escherichia coli ATCC 25922, Staphylococcus aureus ATCC 6538, S. aureus MRSA, Streptococcus agalactiae ATCC 13813, S. iniae, and Pseudomonas aeruginosa ATCC 9027 in 96-well polystyrene plates. Vancomycin and ciprofloxacin were used as positive controls. Briefly, wells containing 100 μL bacteria dilutions (OD600 = 0.01) in Luria–Bertani (LB) medium were supplemented with different concentrations of 1–19 (80, 40, 20, 10, 5, 2.5, 1.25, and 0.625 μg/mL), vancomycin, and ciprofloxacin (40, 20, 10, 5, 2.5, 1.25, 0.625, and 0.3125 μg/mL), respectively. The MICs were determined after 24 hours’ incubation at 37 °C with the tested compounds.

S. aureus MRSA = assay: Antibacterial assay, micro broth dilution; type: cell-based; conditions: Staphylococcus aureus, read-out: Antibacterial Activity (MIC) MRSA
Procedure: as §2

[3] = system: Staphylococcus aureus ATCC 6538; assay: Antibacterial assay, micro broth dilution; type: cell-based; conditions: read-out: Antibacterial Activity (MIC) S. aureus
Procedure: as §2

Micrococcus luteus [4] = assay: Antibacterial assay, micro broth dilution; type: cell-based; conditions: read-out: Antibacterial Activity (MIC) M. luteus
Procedure: as §2

[5] = system: Pseudomonas aeruginosa ATCC 9027; assay: Antibacterial assay, micro broth dilution; type: cell-based; conditions: read-out: Antibacterial Activity (MIC) P. aeruginosa
Procedure: as §2

Bacillus subtilis BS01 = assay: Antibacterial assay, micro broth dilution; type: cell-based; conditions: read-out: Antibacterial Activity (MIC) B. subtilis
Procedure: as §2

[6] = system: Streptococcus agalactiae ATCC 13813; assay: Antibacterial assay, micro broth dilution; type: cell-based; conditions: read-out: Antibacterial Activity (MIC) S. agalactiae
Procedure: as §2

[7] = system: Escherichia coli ATCC 25922; assay: Antibacterial assay, micro broth dilution; type: cell-based; conditions: read-out: Antibacterial Activity (MIC) E. coli
Procedure: as §2

[8] = Antibacterial assays, summary in text over several pathogens; type: cell-based; conditions: read-out: MIC values against four pathogens
Procedure: as §2

Micrococcus luteus [9] = system: Micrococcus luteus; design: method as in PMID 25574740; conditions: cited from earlier work
[10] = system: human ovarian cancer cells; conditions: read-out: IC50 against human ovarian cancer cells; cited from earlier work
Staphylococcus aureus = conditions: cited from earlier work
[11] = micro broth dilution, LB medium, 24 hours at 37 °C
[12] = ATCC6538, micro broth dilution, LB medium, 24 hours at 37 °C
[13] = ATCC9027, micro broth dilution, LB medium, 24 hours at 37 °C
[14] = BS01, micro broth dilution, LB medium, 24 hours at 37 °C
[15] = ATCC13813, micro broth dilution, LB medium, 24 hours at 37 °C
[16] = ATCC25922, micro broth dilution, LB medium, 24 hours at 37 °C
[17] = HepG-2 cells, CCK-8, 24 hours treatment, read-out: Cytotoxicity (IC50) against HepG-2
[18] = H1975 cells, CCK-8, 24 hours treatment, read-out: Cytotoxicity (IC50) against H1975

In the case of `CSS[C@@]12CC3=COC=C[C@H](OC(C)=O)[C@H]3N1C(=O)[C@]1(SC)CC3=COC=C[C@H](OC(C)=O)[C@H]3N1C2=O` [Compound 5, Lecanicillium E], the “Toxicity (TC50) Brine Shrimp” value (brine shrimps) is reported as 40 µg/mL, the IC50 at 24 h [1] is reported as over 80 µM and the IC50 at 24 h [2] is reported as 16.3 µM. The MIC (S. iniae; [11]) was 15 µg/mL (≈ 26.5 µM), the MIC (S. aureus MRSA; [11]) was over 80 µg/mL and the MIC [3, 12] was over 80 µg/mL. For the same molecule, the MIC (Micrococcus luteus [4]; [11]) was 40 µg/mL (≈ 70.6 µM), the MIC [5, 13] was over 80 µg/mL and the MIC (Bacillus subtilis BS01; [14]) was 10 µg/mL (≈ 17.6 µM). The MIC [6, 15] was 25 µg/mL (≈ 44.1 µM), the MIC [7, 16] was 80 µg/mL (≈ 141 µM) and the MIC [8] was 10 to 40 µg/mL (≈ 17.6 to 70.6 µM).
For `CS[C@@]12CC3=CC=C[C@H](O)[C@H]3N1C(=O)[C@]1(SC)CC3=COC=C[C@H](O)[C@H]3N1C2=O` [Compound 14, bisdethiobis(methylsulfanyl)deacetylapoaranotin], the “Toxicity (TC50) Brine Shrimp” value (brine shrimps) was over 80 µg/mL, the IC50 at 24 h [1] was over 80 µM and the IC50 at 24 h [2] was over 80 µM. It also gave an MIC (S. iniae; [11]) of 40 µg/mL (≈ 92.1 µM), an MIC (S. aureus MRSA; [11]) of over 80 µg/mL and an MIC [3, 12] of over 80 µg/mL. It also gave an MIC (Micrococcus luteus [4]; [11]) of over 80 µg/mL, an MIC [5, 13] of over 80 µg/mL and an MIC (Bacillus subtilis BS01; [14]) of over 80 µg/mL. The MIC [6, 15] was over 80 µg/mL and the MIC [7, 16] was over 80 µg/mL.
For `CS[C@@]12CC3=CC=C[C@H](OC(C)=O)[C@H]3N1C(=O)[C@]1(SC)CC3=CC=C[C@H](OC(C)=O)[C@H]3N1C2=O` [Compound 15, haematocin], the “Toxicity (TC50) Brine Shrimp” value (brine shrimps) was over 80 µg/mL, the IC50 at 24 h [1, 17] was over 80 µM and the IC50 at 24 h [2, 18] was over 80 µM. It also gave an MIC (S. iniae; 24 h) of over 80 µg/mL, an MIC (S. aureus MRSA; 24 h) of over 80 µg/mL and an MIC ([3]; ATCC6538, 24 h) of over 80 µg/mL. For the same molecule, the MIC (Micrococcus luteus [4]; 24 h) was over 80 µg/mL, the MIC ([5]; ATCC9027, 24 h) was over 80 µg/mL and the MIC (Bacillus subtilis BS01; BS01, 24 h) was 80 µg/mL (≈ 159 µM). For the same molecule, the MIC ([6]; ATCC13813, 24 h) was over 80 µg/mL and the MIC ([7]; ATCC25922, 24 h) was over 80 µg/mL.
In the case of `CS[C@@]1(Cc2ccccc2)NC(=O)[C@]2(SC)CC3=COC=C[C@H](O)[C@H]3N2C1=O` [Compound 18, emestrin H], the “Toxicity (TC50) Brine Shrimp” value (brine shrimps) is reported as over 80 µg/mL, the IC50 at 24 h [1, 17] is reported as 41.2 µM and the IC50 at 24 h [2, 18] is reported as 50.6 µM. The MIC (S. iniae; 24 h) was 40 µg/mL (≈ 95.6 µM), the MIC (S. aureus MRSA; 24 h) was over 80 µg/mL and the MIC ([3]; ATCC6538, 24 h) was over 80 µg/mL. It also gave an MIC (Micrococcus luteus [4]; 24 h) of over 80 µg/mL, an MIC ([5]; ATCC9027, 24 h) of over 80 µg/mL and an MIC (Bacillus subtilis BS01; BS01, 24 h) of 80 µg/mL (≈ 191 µM). The MIC ([6]; ATCC13813, 24 h) was over 80 µg/mL and the MIC ([7]; ATCC25922, 24 h) was over 80 µg/mL.
In the case of `CS[C@@]12C[C@H]3[C@@H]([C@@H](O)C=C[C@@H]3O)N1C(=O)[C@]1(SC)C[C@H]3[C@@H]([C@@H](O)C=C[C@@H]3O)N1C2=O` [Penicibrocazine C], the “MIC against Micrococcus luteus” value (Micrococcus luteus [9]) is given as 0.25 µg/mL (≈ 0.55 µM).
For `O=C1N2[C@H]3C(=CC=C[C@@H]3O)C[C@]23SS[C@]12C[C@H]1[C@@H]([C@@H](O)C=C[C@@H]1O)N2C3=O` [brocazine G], the IC50 [10] is listed as 0.66 µM and the “MIC against Staphylococcus aureus” value (Staphylococcus aureus) is listed as 0.25 µg/mL (≈ 0.615 µM).
For `O=C(N[C@H](CO)[C@H](O)c1ccc([N+](=O)[O-])cc1)C(Cl)Cl` [chloromycetin], the “MIC against Micrococcus luteus” value (Micrococcus luteus [9]) is listed as 2.0 µg/mL (≈ 6.19 µM).
